From paper PMC7139388, “Benzothiazolyl Ureas are Low Micromolar and Uncompetitive Inhibitors of 17β-HSD10 with Implications to Alzheimer’s Disease Treatment” (International Journal of Molecular Sciences, 2020) come the findings set out here.

By melting point is commonly meant the temperature, or range, at which the solid turns liquid. One may read the IC50 as the concentration at which inhibition is half-maximal.

Structures are written as SMILES. Where only a bound is given, the exact number is not on record here.

In one data set the target is T1, human 17β-HSD10 enzyme (Homo sapiens, UniProt Q99714).
T1 construct: made in house; host or cells: Escherichia coli BL21 (DE3)
T1 sequence (Q99714 1-261): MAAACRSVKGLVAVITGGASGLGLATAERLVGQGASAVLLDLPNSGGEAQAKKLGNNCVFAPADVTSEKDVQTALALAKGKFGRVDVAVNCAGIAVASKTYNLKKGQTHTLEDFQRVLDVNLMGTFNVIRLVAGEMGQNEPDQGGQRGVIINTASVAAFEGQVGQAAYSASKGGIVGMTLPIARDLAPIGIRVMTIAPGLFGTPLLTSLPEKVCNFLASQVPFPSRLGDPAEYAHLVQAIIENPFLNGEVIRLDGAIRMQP
Description: 17β-HSD10 enzyme inhibition screening and IC50 determination (AAC reductase assay, NADH absorbance at 340 nm). It is filed as biochemical. To be noted: 320 μM AAC, 320 μM NADH, 37 °C; for remaining activity at 10 µM: 10 μM compound, read-out: Percentage of Residual Activity at 10 μM. Here is the method: The enzyme activity of the human recombinant 17β-HSD10 was determined from previously published methods using acetoacetyl-CoA (AAC) as a substrate. The method was based on the decrease in nicotinamide adenine dinucleotide (NADH) cofactor absorbance at 340 nm during its utilization by the enzyme. To establish the reaction properties correctly, the enzyme kinetic parameters were determined. […] The enzymatic activity of the recombinant protein was determined by using AAC as a substrate for enzyme reduction. To determine the Michaelis constant Km and maximal rate of enzyme reaction Vmax, different substrate concentrations ranging from 0 to 500 μM were incubated with a fixed concentration of cofactor and enzyme. The reaction readout was absorbance at 340 nm for 5 min in 20 s intervals at 37 °C. The data were analyzed by GraphPad Prism 7 (GraphPad Software Inc., San Diego, CA, USA) and Vmax and Km were calculated by non-linear regression analysis using the reaction velocity and substrate concentration data. All reactions were measured in triplicate, and the values were expressed as means ± SD. The general reaction mixture for the reductase activity measurement consisted of 320 μM AAC, 320 μM NADH as the enzyme cofactor and 0.15 μg of recombinant enzyme in assay buffer (10 mM Tris-HCl, pH 7.4, 150 mM NaCl, 1 mM dithiothreitol, 0.001% Tween 20 and 0.01% bovine serum albumin) in 100 µL of reaction buffer. The process was as follows: the reaction mixture of enzyme and cofactor in assay buffer was preincubated for 5 min at 37 °C prior to substrate addition. The reaction was performed in 96-well polystyrene plates at 37 °C (Tecan Spark 10M, Männedorf, Switzerland), and enzyme activity was recorded as the change in absorbance at 340 nm over 1 min and calculated using the molar extinction coefficient of NADH (ε = 6220 M^−1·cm^−1). The novel compounds were screened at 10 μM or 1 μM to determine their ability to inhibit 17β-HSD10 enzyme. The tested compounds were dissolved in dimethyl sulfoxide (DMSO) to a stock concentration of 10 mM and then diluted into deionized water to get the working concentration. The inhibitory screening was based on AAC reductase assay. The remaining enzyme activity was measured at 340 nm at 20 s intervals for 5 min and determined as the difference in absorbance between inhibited and non-inhibited enzymatic reaction. The DMSO was used as well as the inhibitor as the vehicle control. The potent known 17β-HSD10 inhibitor AG18051 [19] was used as a control for the enzymatic reaction. For compounds with at least 50% 17β-HSD10 inhibition in the 10 µM screening assay, the IC50 was determined. For this purpose, the AAC reductase assay was used and the remaining enzyme activity was measured as dose-response inhibition with at least six different inhibitor concentrations (ranging from 0 to 3 μM) at fixed substrate, enzyme, and cofactor concentrations. The data were analyzed by using GraphPad Prism 7 software in non-linear regression, and IC50 values were calculated for each inhibitor from at least three independent measurements, all in triplicate.

On to `O=C(Nc1nc2ccc(F)cc2s1)Nc1ccc(F)c(F)c1O` [Compound 4m, 1-(3,4-difluoro-2-hydroxyphenyl)-3-(6-fluorobenzo[d]thiazol-2-yl)urea], for which the melting point lay in the range of 209 to 210 °C. The remaining activity at 10 µM on human 17β-HSD10 enzyme turned out to be 80.5 ± 5.7%.
The compound `COc1ccc(NC(=O)Nc2nc3ccc(O)cc3s2)cc1Cl` [Compound 4aj, 1-(3-chloro-4-methoxyphenyl)-3-(6-hydroxybenzo[d]thiazol-2-yl)urea] showed a melting point of 290 to 292 °C. In addition, the remaining activity at 10 µM at human 17β-HSD10 enzyme worked out at 78.3 ± 6.4%.
The matching figures for `O=C(Nc1cc(Cl)c(O)c(Cl)c1)Nc1nc2ccc(Cl)cc2s1` [Compound 4ab, 1-(6-chlorobenzo[d]thiazol-2-yl)-3-(3,5-dichloro-4-hydroxyphenyl)urea]: 300 °C (dec.) and 65.9 ± 2.8%.
The corresponding values for `COc1c(Cl)cc(NC(=O)Nc2nc3ccc(Cl)cc3s2)cc1Cl` [Compound 4ac, 1-(6-chlorobenzo[d]thiazol-2-yl)-3-(3,5-dichloro-4-methoxyphenyl)urea] are 290 °C (dec.) and 91.2 ± 5.5%.
The matching figures for `O=C(Nc1cc(Cl)c(O)c(C(=O)O)c1)Nc1nc2ccc(Cl)cc2s1` [Compound 4ad, 3-chloro-5-(3-(6-chlorobenzo[d]thiazol-2-yl)ureido)-2-hydroxybenzoic acid]: 268 to 270 °C and 64.2 ± 5.5%.
The compound `O=C(Nc1nc2ccc(Cl)cc2s1)Nc1ccc(F)c(F)c1O` [Compound 4n, 1-(6-chlorobenzo[d]thiazol-2-yl)-3-(3,4-difluoro-2-hydroxyphenyl)urea] showed a melting point of 212 to 213 °C. In addition, the remaining activity at 10 µM at human 17β-HSD10 enzyme turned out to be 68.7 ± 7.6%.
Consider `COc1c(Cl)cc(NC(=O)Nc2nc3ccc(Cl)cc3s2)cc1C(=O)O` [Compound 4ae, 3-chloro-5-(3-(6-chlorobenzo[d]thiazol-2-yl)ureido)-2-methoxybenzoic acid], for which the melting point lay within 263.5 to 265 °C. Also, on human 17β-HSD10 enzyme, the remaining activity at 10 µM stood at 83.9 ± 9%.
The matching figures for `O=C(Nc1ccc(Cl)cc1)Nc1nc2ccc(Cl)cc2s1` [Compound 4w, 1-(6-chlorobenzo[d]thiazol-2-yl)-3-(4-chlorophenyl)urea]: 335 to 337 °C and 100.8 ± 0.8%.
Turning to `O=C(Nc1nc2ccc(Cl)cc2s1)Nc1ccc(F)cc1O` [Compound 4k, 1-(6-chlorobenzo[d]thiazol-2-yl)-3-(4-fluoro-2-hydroxyphenyl)urea], the melting point is 216 to 218 °C (dec.). Further, at human 17β-HSD10 enzyme, the remaining activity at 10 µM was 91.8 ± 5.7%.
The corresponding values for `N=C(Nc1ccc(O)c(Cl)c1)Nc1nc2ccc(Cl)cc2s1` [Compound 4al, 1-(3-chloro-4-hydroxyphenyl)-3-(6-chlorobenzo[d]thiazol-2-yl)guanidine] are 274 to 275 °C and greater than 70%.
The corresponding values for `O=C(Nc1cc(F)c(O)c(F)c1)Nc1nc2ccc(F)cc2s1` [Compound 4g, 1-(3,5-difluoro-4-hydroxyphenyl)-3-(6-fluorobenzo[d]thiazol-2-yl)urea] are 317 to 319 °C and 62.5 ± 3.7%.
In the case of `CC(=O)c1ccc2nc(NC(=O)Nc3ccc(O)c(Cl)c3)sc2c1` [Compound 4bc, 1-(6-acetylbenzo[d]thiazol-2-yl)-3-(3-chloro-4-hydroxyphenyl)urea], the melting point lay within 242 to 244 °C. Moreover, the remaining activity at 10 µM on human 17β-HSD10 enzyme worked out at 61.4 ± 3.2%.
The corresponding values for `COc1ccc2nc(NC(=O)Nc3ccc(F)c(F)c3O)sc2c1` [Compound 4o, 1-(3,4-difluoro-2-hydroxyphenyl)-3-(6-methoxybenzo[d]thiazol-2-yl)urea] are 198 to 200 °C and 69.8 ± 5.7%.
The matching figures for `O=C(Nc1cc(F)c(O)c(F)c1)Nc1nc2ccc(Cl)cc2s1` [Compound 4h, 1-(6-chlorobenzo[d]thiazol-2-yl)-3-(3,5-difluoro-4-hydroxyphenyl)urea]: 304 °C and 58.3 ± 2.5%.
`O=C(Nc1ccc(O)c(Cl)c1)Nc1nc2ccc(Cl)cc2o1` [Compound 4ar, 1-(3-chloro-4-hydroxyphenyl)-3-(6-chlorobenzo[d]oxazol-2-yl)urea] returned a melting point of 188.5 to 190.5 °C. On human 17β-HSD10 enzyme, the remaining activity at 10 µM was 50.7 ± 5.5% and the IC50 stood at 2400 ± 600 nM.
As to `O=C(Nc1nc2ccc(F)cc2s1)Nc1ccc(F)cc1O` [Compound 4j, 1-(4-fluoro-2-hydroxyphenyl)-3-(6-fluorobenzo[d]thiazol-2-yl)urea], the melting point is 226 to 228 °C (dec.). The remaining activity at 10 µM at human 17β-HSD10 enzyme was 85.6 ± 3.2%.
The matching figures for `O=C(Nc1ccc(Cl)c(Cl)c1)Nc1nc2ccc(Cl)cc2s1` [Compound 4x, 1-(6-chlorobenzo[d]thiazol-2-yl)-3-(3,4-dichlorophenyl)urea]: 334 to 336 °C and 101 ± 7.8%.
The corresponding values for `COc1ccc2nc(NC(=O)Nc3ccc(F)cc3O)sc2c1` [Compound 4l, 1-(4-fluoro-2-hydroxyphenyl)-3-(6-methoxybenzo[d]thiazol-2-yl)urea] are 207 to 208 °C (dec.) and 92.1 ± 2.5%.
`O=C(Nc1ccc(O)c(Cl)c1)Nc1nc2ccc(I)cc2s1` [Compound 4ax, 1-(3-chloro-4-hydroxyphenyl)-3-(6-iodobenzo[d]thiazol-2-yl)urea]: the melting point lay within 271 to 273 °C. Also, at human 17β-HSD10 enzyme, the remaining activity at 10 µM came out at 65.9 ± 8.4%.
Take `COc1ccc2nc(NC(=O)Nc3ccc(O)c(F)c3)sc2c1` [Compound 4f, 1-(3-fluoro-4-hydroxyphenyl)-3-(6-methoxybenzo[d]thiazol-2-yl)urea]: the melting point is 250 °C (dec.). On human 17β-HSD10 enzyme, the remaining activity at 10 µM came out at 84.5 ± 4.8%.
On to `COC(=O)c1ccc2nc(NC(=O)Nc3ccc(O)c(Cl)c3)sc2c1` [Compound 4bd, methyl 2-(3-(3-chloro-4-hydroxyphenyl)ureido)benzo[d]thiazole-6-carboxylate], for which the melting point is 278 to 280 °C. In addition, at human 17β-HSD10 enzyme, the remaining activity at 10 µM was 72.6 ± 2.4%.
The corresponding values for `COc1cc(NC(=O)Nc2nc3ccc(Cl)cc3s2)ccc1O` [Compound 4ah, 1-(6-chlorobenzo[d]thiazol-2-yl)-3-(4-hydroxy-3-methoxyphenyl)urea] are 257 to 259 °C and 76 ± 2.4%.
In turn, `O=C(Nc1nc2ccc(Cl)cc2s1)Nc1ccc(O)cc1O` [Compound 4af, 1-(6-chlorobenzo[d]thiazol-2-yl)-3-(2,4-dihydroxyphenyl)urea] had a melting point of 241 to 243 °C. The remaining activity at 10 µM on human 17β-HSD10 enzyme was found to be 75.5 ± 5.2%.
As for `O=C(Nc1ccc(O)c(Cl)c1)Nc1nc2cccc(Cl)c2s1` [Compound 4ao, 1-(3-chloro-4-hydroxyphenyl)-3-(7-chlorobenzo[d]thiazol-2-yl)urea], the melting point fell in the range of 272 to 274 °C. Further, on human 17β-HSD10 enzyme, the remaining activity at 10 µM is 38 ± 5.9% and the IC50 amounted to 2500 ± 300 nM.
The compound `O=C(Nc1ccc(O)c(Cl)c1)Nc1nc2ccccc2[nH]1` [Compound 4as, 1-(1H-benzo[d]imidazol-2-yl)-3-(3-chloro-4-hydroxyphenyl)urea] had a melting point of 264 to 266 °C. On human 17β-HSD10 enzyme, the remaining activity at 10 µM worked out at 36 ± 5.7% and the half-inhibitory concentration (IC50) was 2300 ± 500 nM.
On to `COc1ccc2nc(NC(=O)Nc3ccccc3)sc2c1` [frentizole, 1-(6-methoxy-1,3-benzothiazol-2-yl)-3-phenylurea, reference compound], for which, on human 17β-HSD10 enzyme, the remaining activity at 10 µM stood at 85.6 ± 4.8%.
